From patent US20120302618A1, “USE OF BENZYDAMINE IN THE TREATMENT OF P40-DEPENDENT DISEASES” (AZIENDE CHIM. RIUN. ANG. FRANC. A.C.R.A.F. S.p.A., priority 2009, published 2012)
“And” between values parts separate entries of the source, which are not always exact repeats. Equal values may be shown once.

Columns and labels:
p40 [1] = assay: Inhibition of p40 mRNA expression by LPS-stimulated MonoMac6 cells (real-time PCR); type: cell-based, human; details: 75 μM, 1 h preincubation, LPS 100 ng/ml for 4 h
Description: The capacity of benzydamine to inhibit the expression of p40 by lipopolysaccharide (LPS)-stimulated MonoMac6 cells was evaluated. The cells were placed in 96-well plates at a concentration of 50 000 cells/well. The compound was tested at the concentration of 75 μM and incubated for 1 hour. The cells were then stimulated with LPS (100 ng/ml) for 4 hours. The total RNA was extracted from the cell pellet using the RNeasy mini kit (Qiagen), reverse-transcribed with the TaqMan Reverse transcription reagents synthesis kit (Applied Biosystems) and the cDNA obtained was used for the real-time PCR reaction. The amplification was obtained in 96-well plates using the ABI Prism 7000 sequence detection system (Applied Biosystems), by applying the following temperature profile: 50° C. for 2 minutes, 95° C. for 10 minutes and 45 cycles at 95° C. for 15 seconds and 60° C. for 1 minute. For the amplification, a set of primers and probe specific for human p40 was used (Applied Biosystems, RefSeq NM_002187.2). A set of primers and probe for β-actin was used in separate wells as an internal control of the samples for the purposes of normalization. Once the reaction had taken place, the fluorescence data were analysed using the ABI Prism 7000 SDS software, by calculating the threshold cycle (Ct) for each sample and subsequently performing a relative quantification via the ΔΔCt method.

p40 [2] = assay: Inhibition of p40 protein production by anti-CD3 stimulated human PBMCs (Luminex); type: cell-based
Description: (§1) The capacity of the compound to inhibit the production of the protein p40 by anti-CD3 stimulated human PBMCs (peripheral blood mononuclear cells) was evaluated. The cells were placed in 96-well plates at a concentration of 2×10^5 cells/well. The compound was tested on a 6-point ½-log dose curve (in the range 0.3-100 μM) and incubated for 1 hour. The cells were then stimulated with anti-CD3 (4 μg/ml) for 48 hours. The amount of p40 produced was measured in the supernatants, suitably diluted with buffer, by using the Luminex 100 system.

TNF [3] = assay: Inhibition of TNF production by anti-CD3 stimulated human PBMCs (Luminex); type: cell-based
Description: as §1, with “expression” for “production”, “TNF” for “p40”

TNF [4] = details: mice; cited from earlier work
[5] = 0 μM (so in the source), anti-CD3 4 μg/ml 48 h, human PBMCs
[6] = PBMC, 1 μM, anti-CD3 4 μg/ml 48 h, human PBMCs
[7] = PBMC, 3 μM, anti-CD3 4 μg/ml 48 h, human PBMCs
[8] = PBMC, 10 μM, anti-CD3 4 μg/ml 48 h, human PBMCs
[9] = PBMC, 30 μM, anti-CD3 4 μg/ml 48 h, human PBMCs
[10] = PBMC, 100 μM, anti-CD3 4 μg/ml 48 h, human PBMCs
[11] = PBMC, anti-CD3 stimulated human PBMCs, 48 h
[12] = dose curve 0.3-100 μM, human PBMCs

CN(C)CCCOc1nn(Cc2ccccc2)c2ccccc12 [Benzydamine]
% inhibition of LPS-induced p40 mRNA expression (p40 [1]): 80% | % inhibition of p40 production (p40 [2]; [5]): 0% | inhibition at 1 µM (p40 [2]; [6]): 23% | inhibition at 3 µM (p40 [2]; [7]): 24% | inhibition at 10 µM (p40 [2]; [8]): 44% | inhibition at 30 µM (p40 [2]; [9]): 97% | inhibition at 100 µM (p40 [2]; [10]): 99% | IC50 (p40 [2]; [11]): 10.1 µM | inhibition of anti-CD3 induced p40 production, range over dose curve (p40 [2]; [12]): 23-99% | % inhibition of TNF production (TNF [3]; [5]): 7% | inhibition at 1 µM (TNF [3]; [6]): 8% | inhibition at 3 µM (TNF [3]; [7]): 12% | inhibition at 10 µM (TNF [3]; [8]): 22% | inhibition at 30 µM (TNF [3]; [9]): 44% | inhibition at 100 µM (TNF [3]; [10]): 70% | IC50 (TNF [3]; [11]): 43.1 µM | IC50 for TNF relative to IC50 for p40 (TNF [3]; anti-CD3 stimulated human PBMCs): about 4 fold | inhibition of anti-CD3 induced TNF production, range over dose curve (TNF [3]; [12]): 8-70% | dose required for a significant inhibiting effect on TNF production (TNF [4]): 20 mg/kg and 40 mg/kg
